Source: US20140309296A1, “BUDIODARONE FORMULATIONS” (Armetheon, Inc., priority 2013, published 2014)
Where a name gives a salt, the structure may show the parent alone.

What was measured:
[1] = test system: sodium, potassium, and calcium ion channels; details: in vivo; cited from earlier work
[2] = 30 ml of 0.9% benzyl alcohol in saline, estimated from animal studies; cited from earlier work
[3] = Budiodarone concentration attainable in hyperconcentrated solutions (Examples 16-18); format: physicochemical
Description: The benzyl alcohol/budiodarone tartrate solution is viscous and therefore direct measurement of the budiodarone concentration is difficult. A better way to measure budiodarone concentration in the solution of benzyl alcohol and budiodarone oil or in a hyperconcentrated solution is by using an indirect method. In this example, the volume of the benzyl alcohol/budiodarone mixture was measured, which in turn allowed for the calculation of an accurate budiodarone concentration.
In each of five vials of accurately known volume, budiodarone tartrate (250 mg) and benzyl alcohol (91 μl) were mixed in order to make a 3/1 mixture (mol/mol). Then the solution was mixed thoroughly in order to make a clear solution. This was aided with the help of warming to 50° C. for 3 minutes in order to reduce the viscosity of the mixture. The weight of the vial containing the 3:1 mixture of benzyl alcohol/budiodarone was then recorded. Vial number 1 was filled with silicon oil of density d=0.964 and weighed again. The difference in weight provided the weight of the silicon oil added. This, divided by the density of the silicon oil provided the volume of silicon oil necessary to fill the vial. The difference with the known volume of the vial represents the volume of the benzyl alcohol/budiodarone mixture. To Vial numbers 2, 3, 4, and 5 was added 50, 100, 200, and 400 μl of water, respectively. The contents of the vials were then thoroughly mixed in order to get hyperconcentrated solutions of different volumes and different budiodarone concentrations. The volumes of these hyperconcentrations using silicon oil were measured as described above.
The same experiment as Example 16 was replicated, using mixtures of 5/1 ratio (250 mg of budiodarone tartrate and 152 μl of benzyl alcohol) and various volumes of water added. Using the same procedure as Example 16, a maximum calculated budiodarone concentration of 737 mg/ml and a maximum benzyl alcohol concentration of 45% (v/v) were found.
Similarly, the experiment in Example 16 was replicated, using a 1/1 mixture (250 mg of budiodarone tartrate and 30 μl of benzyl alcohol). A maximum calculated budiodarone concentration of 1,136 mg/ml and a maximum benzyl alcohol concentration of 13.6% (v/v) were found.

[4] = Solubility of budiodarone tartrate in water (Example 2); format: physicochemical
Description: The aqueous solubility of budiodarone tartrate was measured in pure distilled water. Budiodarone tartrate (250 mg) was suspended in distilled water (10 ml) and the suspension was vortexed on a VWR Genie 2 vortexer at maximum speed for 3×10 sec duration. The suspension was then stirred for 96 hours at room temperature, protected from light. After 96 hours, the suspension was vortexed again and a 1 ml aliquot was centrifuged at 13,000 rpm for 10 minutes to precipitate all insoluble material. A 40 μl aliquot of the clear supernatant was diluted with 960 μl of methanol (25-fold dilution) and was analyzed by HPLC using Conditions 3.
The amount of budiodarone in solution is found to be 7.04 mg/ml. This figure is the solubility of budiodarone tartrate in water.

CCN(CC)CCOc1c(I)cc(C(=O)c2c(CC(=O)O)oc3ccccc23)cc1I [ATI-2000]
electrophysiological activity of the major metabolite [1]: electrophysiologically inactive

OCc1ccccc1 [benzyl alcohol]
amount estimated to be safe by rapid intravenous infusion [2]: approximately 4.5 mg/kg
maximum benzyl alcohol concentration ([3]; 1/1 mixture): 13.6 % (v/v)
maximum benzyl alcohol concentration ([3]; 3:1 molar ratio of benzyl alcohol/budiodarone): 32.4 % (v/v)
maximum benzyl alcohol concentration ([3]; 5/1 ratio): 45 % (v/v)

CC[C@H](C)OC(=O)Cc1oc2ccccc2c1C(=O)c1cc(I)c(OCCN(CC)CC)c(I)c1 [budiodarone tartrate, (1S)-1-methylpropyl 2-(3-{4-[2-(diethylamino)ethoxy]-3,5-diiodobenzoyl}benzofuran-2-yl)acetate, hydrogen (2R,3R)-2,3-dihydroxybutanedioate]
degradation products in the clear supernatant ([4]; after 96 hours stirring in distilled water at room temperature, HPLC): No significant amount of degradation products were detected
solubility at 96 h ([4]; distilled water, water, thermodynamic from solid, water, room temperature, read-out: aqueous solubility of budiodarone tartrate): 7040 µg/mL
aqueous solubility of budiodarone tartrate ([4]; water, room temperature): about 7 mg/ml
